Results taken from patent publication US20250092084A1, “C7, C12, AND C16 SUBSTITUTED NEUROACTIVE STEROIDS AND THEIR METHODS OF USE” (Sage Therapeutics, Inc., priority 2016, published 2025).

Target: rat brain cortical membranes (GABA receptor complex, [35S]-TBPS binding)
Experiment: Steroid inhibition of [35S]-TBPS binding
Conditions: 3 nM [35S]-TBPS, in the presence of 5 mM GABA
Protocol: [^35S]-t-Butylbicyclophosphorothionate (TBPS) binding assays using rat brain cortical membranes in the presence of 5 mM GABA has been described (Gee et al, J Pharmacol. Exp. Ther. 1987, 241, 346-353; Hawkinson et al, Mol. Pharmacol. 1994, 46, 977-985; Lewin, A. H et al., Mol. Pharmacol. 1989, 35, 189-194).
Briefly, cortices are rapidly removed following decapitation of carbon dioxide-anesthetized Sprague-Dawley rats (200-250 g). The cortices are homogenized in 10 volumes of ice-cold 0.32 M sucrose using a glass/teflon homogenizer and centrifuged at 1500×g for 10 min at 4° C. The resultant supernatants are centrifuged at 10,000×g for 20 min at 4° C. to obtain the P2 pellets. The P2 pellets are resuspended in 200 mM NaCl/50 mM Na—K phosphate pH 7.4 buffer and centrifuged at 10,000×g for 10 min at 4° C. This washing procedure is repeated twice and the pellets are resuspended in 10 volumes of buffer. Aliquots ([…]) of the membrane suspensions are incubated with 3 nM [^35S]-TBPS and […] aliquots of test drug dissolved in dimethyl sulfoxide (DMSO) (final 0.5%) in the presence of 5 mM GABA. The incubation is brought to a final volume of 1.0 mL with buffer. Nonspecific binding is determined in the presence of […] and ranged from 15 to 25%. Following a 90 min incubation at room temp, the assays are terminated by filtration through glass fiber filters (Schleicher and Schuell No. 32) using a cell harvester (Brandel) and rinsed three times with ice-cold buffer. Filter bound radioactivity is measured by liquid scintillation spectrometry. Non-linear curve fitting of the overall data for each drug averaged for each concentration is done using Prism (GraphPad). […] The concentration of test compound producing 50% inhibition (IC50) of specific binding and the maximal extent of inhibition (Imax) are determined for the individual experiments with the same model used for the overall data and then the means±SEMs of the individual experiments are calculated.
Various compounds are or can be screened to determine their potential as modulators of [^35S]-TBPS binding in vitro. These assays are or can be performed in accordance with the above discussed procedures.

Structure (SMILES)	IC50 [nM]
CC(=O)[C@H]1CC[C@H]2[C@@H]3CC[C@H]4C[C@](C)(O)CC[C@]4(C)[C@H]3CC(=O)[C@]12C [Compound 46]	≥ 500
C[C@@H]1C[C@H]2C[C@](C)(O)CC[C@]2(C)[C@H]2CC[C@]3(C)[C@@H](C#N)CC[C@H]3[C@H]12 [Compound 1]	≥ 500
COC[C@H]1C[C@H]2C[C@](C)(O)CC[C@]2(C)[C@H]2CC[C@]3(C)[C@@H](C(=O)Cn4nnc5ccc(OC)cc54)CC[C@H]3[C@H]12 [Compound 16]	≥ 500
CO[C@H]1C[C@H]2[C@@H](CC[C@H]3C[C@](C)(O)CC[C@@]32C)[C@@H]2CC[C@H](C(=O)Cn3ncc4ccncc43)[C@@]12C [Compound 55]	≥ 500
COC[C@@H]1C[C@H]2C[C@](C)(O)CC[C@]2(C)[C@H]2CC[C@]3(C)[C@@H](C(=O)Cn4ncc5ccncc54)CC[C@H]3[C@H]12 [Compound 23]	≥ 500
C[C@@H]1C[C@H]2[C@@H]3CC[C@H]4C[C@](C)(O)CC[C@]4(C)[C@H]3CC[C@]2(C)[C@H]1C(=O)Cn1cc(C#N)cn1 [Compound 66]	10 to 50
CC[C@@H]1C[C@H]2[C@@H]3CC[C@H]4C[C@](C)(O)CC[C@]4(C)[C@H]3CC[C@]2(C)[C@H]1C(=O)Cn1nc2ccc(OC)cc2n1 [Compound 70]	≥ 500
C[C@@]1(O)CC[C@@]2(C)[C@@H](CC[C@@H]3[C@@H]2CC(=O)[C@]2(C)[C@@H](C(=O)Cn4cc(C#N)cn4)CC[C@@H]32)C1 [Compound 48]	≥ 500
CO[C@@H]1C[C@H]2[C@@H](CC[C@H]3C[C@](C)(O)CC[C@@]32C)[C@@H]2CC[C@H](C#N)[C@@]12C [Compound 41]	100 to 500
C[C@@]1(O)CC[C@@]2(C)[C@@H](CC[C@@H]3[C@@H]2C[C@@H](O)[C@]2(C)[C@@H](C(=O)Cn4cc(C#N)cn4)CC[C@@H]32)C1 [Compound 47]	≥ 500
COC[C@H]1C[C@H]2C[C@](C)(O)CC[C@]2(C)[C@H]2CC[C@]3(C)[C@@H](C(=O)Cn4cc(C#N)cn4)CC[C@H]3[C@H]12 [Compound 13]	≥ 500
C[C@@]1(O)CC[C@@]2(C)[C@@H](C[C@@H](O)[C@@H]3[C@@H]2CC[C@]2(C)[C@@H](C(=O)Cn4cc(C#N)cn4)CC[C@@H]32)C1 [Compound 26]	≥ 500
COC[C@H]1C[C@H]2C[C@](C)(O)CC[C@]2(C)[C@H]2CC[C@]3(C)[C@@H](C(=O)Cn4nc5ccc(OC)cc5n4)CC[C@H]3[C@H]12 [Compound 15]	≥ 500
CO[C@H]1C[C@H]2C[C@](C)(O)CC[C@]2(C)[C@H]2CC[C@]3(C)[C@@H](C(C)=O)CC[C@H]3[C@H]12 [Compound 30]	≥ 500
C[C@@]1(O)CC[C@@]2(C)[C@@H](CC[C@@H]3[C@@H]2C[C@@H](O)[C@]2(C)[C@@H](C#N)CC[C@@H]32)C1 [Compound 40]	≥ 500
C[C@@]1(O)CC[C@@]2(C)[C@@H](C[C@@H](O)[C@@H]3[C@@H]2CC[C@]2(C)[C@@H](C(=O)Cn4ncc5ccncc54)CC[C@@H]32)C1 [Compound 28]	≥ 500

Structure (SMILES)	IC50 [nM]
CO[C@H]1CC[C@H]2[C@@H]3CC[C@H]4C[C@](C)(O)CC[C@]4(C)[C@H]3C[C@@H](OC)[C@]12C [Compound 42]	100 to 500
C[C@@H]1C[C@H]2C[C@](C)(O)CC[C@]2(C)[C@H]2CC[C@]3(C)[C@@H](C(=O)Cn4cc5ccncc5n4)CC[C@H]3[C@H]12 [Compound 8]	≥ 500
C[C@H]1C[C@H]2C[C@](C)(O)CC[C@]2(C)[C@H]2CC[C@]3(C)[C@@H](C(=O)Cn4cc5ccncc5n4)CC[C@H]3[C@H]12 [Compound 7]	≥ 500
CC(=O)[C@H]1[C@H](C)C[C@H]2[C@@H]3CC[C@H]4C[C@](C)(O)CC[C@]4(C)[C@H]3CC[C@@]21C [Compound 64]	100 to 500
CC(=O)[C@H]1[C@H](C)C[C@H]2[C@@H]3CC[C@H]4C[C@](C)(O)CC[C@@H]4[C@H]3CC[C@@]21C (stereo in doubt) [Compound 91]	10 to 50
Cc1nnnn1CC(=O)[C@H]1[C@H](C)C[C@H]2[C@@H]3CC[C@H]4C[C@](C)(O)CC[C@]4(C)[C@H]3CC[C@@]21C [Compound 90]	100 to 500
C[C@H]1C[C@H]2C[C@](C)(O)CC[C@]2(C)[C@H]2CC[C@]3(C)[C@@H](C(=O)Cn4cc(C#N)cn4)CC[C@H]3[C@H]12 [Compound 39]	100 to 500
CO[C@H]1CC[C@H]2[C@@H]3[C@@H](C)C[C@H]4C[C@](C)(O)CC[C@]4(C)[C@H]3CC[C@]12C [Compound 4]	≥ 500
CO[C@@H]1C[C@H]2[C@@H](CC[C@H]3C[C@](C)(O)CC[C@@]32C)[C@@H]2CC[C@H](C(=O)Cn3nnnc3C)[C@@]12C [Compound 61]	100 to 500
CO[C@@H]1C[C@H]2[C@@H](CC[C@H]3C[C@](C)(O)CC[C@@]32C)[C@@H]2CC[C@H](C(C)=O)[C@@]12C [Compound 43]	100 to 500
CO[C@H]1C[C@H]2[C@@H](CC[C@H]3C[C@](C)(O)CC[C@@]32C)[C@@H]2CC[C@H](C(C)=O)[C@@]12C [Compound 52]	≥ 500
Cc1nnn(CC(=O)[C@H]2[C@H](C)C[C@H]3[C@@H]4CC[C@H]5C[C@](C)(O)CC[C@]5(C)[C@H]4CC[C@@]32C)n1 [Compound 89]	10 to 50
CC(=O)[C@H]1CC[C@H]2[C@@H]3[C@@H](C)C[C@H]4C[C@](C)(O)CC[C@]4(C)[C@H]3CC[C@]12C [Compound 6]	≥ 500
COc1ccc2c(c1)nnn2CC(=O)[C@H]1[C@H](C)C[C@H]2[C@@H]3CC[C@H]4C[C@](C)(O)CC[C@]4(C)[C@H]3CC[C@@]21C [Compound 69]	10 to 50
C[C@@]1(O)CC[C@@]2(C)[C@@H](C[C@@H](O)[C@@H]3[C@@H]2CC[C@]2(C)[C@@H](C(=O)Cn4cc5ccncc5n4)CC[C@@H]32)C1 [Compound 27]	≥ 500
